Experimental data taken from US7943619B2, “Isoxazolo-pyridazine derivatives” (priority 2007, dated 2011).

Each compound was assayed against human GABA A receptor α5β3γ2 (α5 subunit) (Homo sapiens, UniProt P18507+P31644) (assay: biochemical). Details: competition for [3H]flumazenil binding, HEK293 cells transiently expressing human receptors; means of two determinations; read-out: hKi.
Type: binding
Method: The affinity of compounds at GABA A receptor subtypes was measured by competition for [3H]flumazenil (85 Ci/mmol; Roche) binding to HEK293 cells expressing rat (stably transfected) or human (transiently transfected) receptors of composition α1β3γ2, α2β3γ2, α3β3γ2 and α5β3γ2.
Cell pellets were suspended in Krebs-tris buffer (4.8 mM KCl, 1.2 mM CaCl2, 1.2 mM MgCl2, 120 mM NaCl, 15 mM Tris; pH 7.5; binding assay buffer), homogenized by polytron for ca. 20 sec on ice and centrifuged for 60 min at 4° C. (50000 g; Sorvall, rotor: SM24=20000 rpm). The cell pellets were resuspended in Krebs-tris buffer and homogenized by polytron for ca. 15 sec on ice. Protein was measured (Bradford method, Bio-Rad) and aliquots of 1 mL were prepared and stored at −80° C.
Assays were incubated to equilibrium for 1 hour at 4° C. and harvested onto GF/C uni-filters (Packard) by filtration using a Packard harvester and washing with ice-cold wash buffer (50 mM Tris; pH 7.5). After drying, filter-retained radioactivity was detected by liquid scintillation counting. Ki values were calculated using Excel-Fit (Microsoft) and are the means of two determinations.

Sequence of human GABA A receptor α5β3γ2 (α5 subunit) (P31644 32-462): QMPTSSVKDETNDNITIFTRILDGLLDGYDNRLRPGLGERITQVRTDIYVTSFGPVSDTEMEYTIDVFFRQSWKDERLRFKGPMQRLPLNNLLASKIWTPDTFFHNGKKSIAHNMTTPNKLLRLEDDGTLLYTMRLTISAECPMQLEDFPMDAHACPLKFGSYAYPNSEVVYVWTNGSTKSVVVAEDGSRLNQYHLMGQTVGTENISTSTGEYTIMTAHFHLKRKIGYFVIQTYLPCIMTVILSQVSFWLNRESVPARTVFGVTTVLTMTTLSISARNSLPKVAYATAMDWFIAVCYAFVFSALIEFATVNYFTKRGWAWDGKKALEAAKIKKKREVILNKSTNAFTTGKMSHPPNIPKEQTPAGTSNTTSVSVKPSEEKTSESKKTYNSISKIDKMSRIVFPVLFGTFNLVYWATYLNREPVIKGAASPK
Sequence of human GABA A receptor α5β3γ2 (α5 subunit) (P28472 26-473 partner): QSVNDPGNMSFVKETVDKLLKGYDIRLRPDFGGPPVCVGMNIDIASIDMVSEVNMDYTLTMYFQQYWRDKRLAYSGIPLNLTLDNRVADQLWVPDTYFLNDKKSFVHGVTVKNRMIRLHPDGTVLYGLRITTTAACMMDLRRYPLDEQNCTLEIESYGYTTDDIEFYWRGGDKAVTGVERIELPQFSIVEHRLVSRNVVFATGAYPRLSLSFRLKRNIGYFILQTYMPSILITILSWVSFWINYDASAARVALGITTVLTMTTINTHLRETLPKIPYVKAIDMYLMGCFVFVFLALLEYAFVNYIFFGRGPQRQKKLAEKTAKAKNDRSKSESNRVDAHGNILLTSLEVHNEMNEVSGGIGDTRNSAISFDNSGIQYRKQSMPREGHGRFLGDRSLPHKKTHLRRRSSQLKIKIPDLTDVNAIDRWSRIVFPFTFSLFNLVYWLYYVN
Sequence of human GABA A receptor α5β3γ2 (α5 subunit) (P18507 40-475): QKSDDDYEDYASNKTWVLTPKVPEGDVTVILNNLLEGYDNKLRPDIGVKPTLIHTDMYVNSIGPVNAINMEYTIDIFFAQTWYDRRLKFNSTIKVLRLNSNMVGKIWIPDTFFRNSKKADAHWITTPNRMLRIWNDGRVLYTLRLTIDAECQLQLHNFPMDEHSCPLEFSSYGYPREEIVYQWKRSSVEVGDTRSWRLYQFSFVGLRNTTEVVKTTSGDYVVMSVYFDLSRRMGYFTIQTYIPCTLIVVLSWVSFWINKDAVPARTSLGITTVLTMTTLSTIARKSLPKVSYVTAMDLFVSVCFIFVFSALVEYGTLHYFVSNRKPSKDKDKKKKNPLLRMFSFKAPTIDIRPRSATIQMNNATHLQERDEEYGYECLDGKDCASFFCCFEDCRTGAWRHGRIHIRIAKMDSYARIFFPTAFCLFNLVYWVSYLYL

SMILES	Ki [nM]
CCOC(=O)Nc1ccc(OCc2c(-c3ccccc3)noc2C)nn1 [Example 34, [6-(5-Methyl-3-phenyl-isoxazol-4-ylmethoxy)-pyridazin-3-yl]-carbamic acid ethyl ester]	8.6
Cc1onc(-c2ccccc2)c1COc1ccc(C(=O)NCCO)nn1 [Example 12, 6-(5-Methyl-3-phenyl-isoxazol-4-ylmethoxy)-pyridazine-3-carboxylic acid (2-hydroxy-ethyl)-amide]	3.4
Cc1onc(-c2ccc(F)cc2)c1COc1ccc(C(=O)NC2CCOCC2)nn1 [Example 63, 6-[3-(4-Fluoro-phenyl)-5-methyl-isoxazol-4-ylmethoxy]-pyridazine-3-carboxylic acid (tetrahydro-pyran-4-yl)-amide]	2.4
Cc1ccc(OCc2c(-c3ccccc3)noc2C)nn1 [Example 4, 3-Methyl-6-(5-methyl-3-phenyl-isoxazol-4-ylmethoxy)-pyridazine]	6.2
Cc1onc(-c2ccccc2)c1COc1ccc(C(=O)NC2CCOCC2)nn1 [Example 9, 6-(5-Methyl-3-phenyl-isoxazol-4-ylmethoxy)-pyridazine-3-carboxylic acid (tetrahydro-pyran-4-yl)-amide]	4.8
CCOC(=O)c1ccc(OCc2c(-c3ccccn3)noc2C)nn1 [Example 93, 6-(5-Methyl-3-pyridin-2-yl-isoxazol-4-ylmethoxy)-pyridazine-3-carboxylic acid ethyl ester]	2.9
Cc1onc(-c2cccc(F)c2)c1COc1ccc(C(=O)NC(C)C)nn1 [Example 54, 6-[3-(3-Fluoro-phenyl)-5-methyl-isoxazol-4-ylmethoxy]-pyridazine-3-carboxylic acid isopropylamide]	8.4
Cc1cc(C)n(-c2ccc(OCc3c(-c4ccccc4)noc3C)nn2)n1 [Example 39, 3-(3,5-Dimethyl-pyrazol-1-yl)-6-(5-methyl-3-phenyl-isoxazol-4-ylmethoxy)-pyridazine]	5.1
Cc1onc(-c2cccc(F)c2)c1COc1ccc(C(=O)NCCO)nn1 [Example 52, 6-[3-(3-Fluoro-phenyl)-5-methyl-isoxazol-4-ylmethoxy]-pyridazine-3-carboxylic acid (2-hydroxy-ethyl)-amide]	6.6
Cc1onc(-c2ccccc2)c1COc1ccc(NC(=O)C(C)C)nn1 [Example 20, N-[6-(5-Methyl-3-phenyl-isoxazol-4-ylmethoxy)-pyridazin-3-yl]-isobutyramide]	7.9
Cc1onc(-c2ccccn2)c1COc1ccc(C(=O)NCC(F)(F)F)nn1 [Example 98, 6-(5-Methyl-3-pyridin-2-yl-isoxazol-4-ylmethoxy)-pyridazine-3-carboxylic acid (2,2,2-trifluoro-ethyl)-amide]	2.8
Cc1onc(-c2ccccc2)c1COc1ccc(N(C)C)nn1 [Example 38, Dimethyl-[6-(5-methyl-3-phenyl-isoxazol-4-ylmethoxy)-pyridazin-3-yl]-amine]	8.4
Cc1onc(-c2ccc(F)cc2)c1COc1ccc(C(=O)NC2CC2)nn1 [Example 62, 6-[3-(4-Fluoro-phenyl)-5-methyl-isoxazol-4-ylmethoxy]-pyridazine-3-carboxylic acid cyclopropylamide]	1.7
Cc1onc(-c2ccccc2)c1COc1ccc(NC(=O)C2CCOCC2)nn1 [Example 25, Tetrahydro-pyran-4-carboxylic acid [6-(5-methyl-3-phenyl-isoxazol-4-ylmethoxy)-pyridazin-3-yl]-amide]	8.7
Cc1onc(-c2ccccn2)c1COc1ccc(C(=O)NC(C)C)nn1 [Example 95, 6-(5-Methyl-3-pyridin-2-yl-isoxazol-4-ylmethoxy)-pyridazine-3-carboxylic acid isopropylamide]	2.7
CC(=O)Nc1ccc(OCc2c(-c3ccccc3)noc2C)nn1 [Example 17, N-[6-(5-Methyl-3-phenyl-isoxazol-4-ylmethoxy)-pyridazin-3-yl]-acetamide]	3.9
Cc1onc(-c2ccc(F)cc2)c1COc1ccc(C(=O)N2CCS(=O)(=O)CC2)nn1 [Example 66, (1,1-Dioxo-1λ6-thiomorpholin-4-yl)-{6-[3-(4-fluoro-phenyl)-5-methyl-isoxazol-4-ylmethoxy]-pyridazin-3-yl}-methanone]	11.7
Cc1onc(-c2ccccc2)c1COc1ccc(NC(=O)c2ccccc2)nn1 [Example 30, N-[6-(5-Methyl-3-phenyl-isoxazol-4-ylmethoxy)-pyridazin-3-yl]-benzamide]	13.7
COCCNC(=O)c1ccc(OCc2c(-c3ccccc3)noc2C)nn1 [Example 6, 6-(5-Methyl-3-phenyl-isoxazol-4-ylmethoxy)-pyridazine-3-carboxylic acid (2-methoxy-ethyl)-amide]	5.4
Cc1onc(-c2ccccn2)c1COc1ccc(Cl)nn1 [Example 92, 3-Chloro-6-(5-methyl-3-pyridin-2-yl-isoxazol-4-ylmethoxy)-pyridazine]	3.8

More lines, in order of falling Ki, values ahead:

Ki [nM]	SMILES
31.5	O=C(NC1CC1)c1ccc(OCc2conc2-c2ccccn2)nn1 [Example 124, 6-(3-Pyridin-2-yl-isoxazol-4-ylmethoxy)-pyridazine-3-carboxylic acid cyclopropylamide]
23.3	Cc1onc(-c2ccncc2)c1COc1ccc(C(=O)NCCO)nn1 [Example 107, 6-(5-Methyl-3-pyridin-4-yl-isoxazol-4-ylmethoxy)-pyridazine-3-carboxylic acid (2-hydroxy-ethyl)-amide]
18.1	Cc1onc(-c2ccccn2)c1COc1ccc(C(=O)N2CCS(=O)(=O)CC2)nn1 [Example 99, (1,1-Dioxo-1λ6-thiomorpholin-4-yl)-[6-(5-methyl-3-pyridin-2-yl-isoxazol-4-ylmethoxy)-pyridazin-3-yl]-methanone]
14.2	CCNC(=O)c1ccc(OCc2c(-c3ccncc3)noc2C)nn1 [Example 109, 6-(5-Methyl-3-pyridin-4-yl-isoxazol-4-ylmethoxy)-pyridazine-3-carboxylic acid ethylamide]
12.3	COc1ccc(OCc2c(-c3ccccc3)noc2C)nn1 [Example 14, 3-Methoxy-6-(5-methyl-3-phenyl-isoxazol-4-ylmethoxy)-pyridazine]
6.1	CCNC(=O)c1ccc(OCc2c(-c3cccc(F)c3)noc2C)nn1 [Example 51, 6-[3-(3-Fluoro-phenyl)-5-methyl-isoxazol-4-ylmethoxy]-pyridazine-3-carboxylic acid ethylamide]
4.6	Cc1onc(-c2ccc(F)cc2)c1COc1ccc(Cl)nn1 [Example 57, 3-Chloro-6-[3-(4-fluoro-phenyl)-5-methyl-isoxazol-4-ylmethoxy]-pyridazine]
4.6	Cc1onc(-c2ccc(F)cc2)c1COc1ccc(C(=O)NCC2CC2)nn1 [Example 59, 6-[3-(4-Fluoro-phenyl)-5-methyl-isoxazol-4-ylmethoxy]-pyridazine-3-carboxylic acid cyclopropylmethyl-amide]
4.1	Cc1onc(-c2ccccc2)c1COc1ccc(N)nn1 [Example 15, 6-(5-Methyl-3-phenyl-isoxazol-4-ylmethoxy)-pyridazin-3-ylamine]
4	Cc1onc(-c2ccccn2)c1COc1ccc(C(=O)NC(C)(C)CO)nn1 [Example 105, 6-(5-Methyl-3-pyridin-2-yl-isoxazol-4-ylmethoxy)-pyridazine-3-carboxylic acid (2-hydroxy-1,1-dimethyl-ethyl)-amide]
3.5	Cc1onc(-c2ccc(F)cc2)c1COc1ccc(C(=O)NCC(F)(F)F)nn1 [Example 60, 6-[3-(4-Fluoro-phenyl)-5-methyl-isoxazol-4-ylmethoxy]-pyridazine-3-carboxylic acid (2,2,2-trifluoro-ethyl)-amide]
3.3	CCOC(=O)c1ccc(OCc2c(-c3ccc(F)cc3)noc2C)nn1 [Example 58, 6-[3-(4-Fluoro-phenyl)-5-methyl-isoxazol-4-ylmethoxy]-pyridazine-3-carboxylic acid ethyl ester]
2.9	Cc1onc(-c2ccccn2)c1COc1ccc(C(=O)NC2CCOCC2)nn1 [Example 94, 6-(5-Methyl-3-pyridin-2-yl-isoxazol-4-ylmethoxy)-pyridazine-3-carboxylic acid (tetrahydro-pyran-4-yl)-amide]
2.2	CCOC(=O)c1cc(C)c(OCc2c(-c3ccccc3)noc2C)nn1 [Example 40, 5-Methyl-6-(5-methyl-3-phenyl-isoxazol-4-ylmethoxy)-pyridazine-3-carboxylic acid ethyl ester]
2.1	Cc1onc(-c2ccc(Cl)cn2)c1COc1ccc(C(=O)O)nn1 [Example 113, 6-[3-(5-Chloro-pyridin-2-yl)-5-methyl-isoxazol-4-ylmethoxy]-pyridazine-3-carboxylic acid]
1.9	CCOC(=O)c1nnc(OCc2c(-c3ccccc3)noc2C)cc1C [Example 42, 4-Methyl-6-(5-methyl-3-phenyl-isoxazol-4-ylmethoxy)-pyridazine-3-carboxylic acid ethyl ester]
1.6	COCCNC(=O)c1ccc(OCc2c(-c3ccccn3)noc2C)nn1 [Example 106, 6-(5-Methyl-3-pyridin-2-yl-isoxazol-4-ylmethoxy)-pyridazine-3-carboxylic acid (2-methoxy-ethyl)-amide]
1.5	CCNC(=O)c1ccc(OCc2c(-c3ccccn3)noc2C)nn1 [Example 103, 6-(5-Methyl-3-pyridin-2-yl-isoxazol-4-ylmethoxy)-pyridazine-3-carboxylic acid ethylamide]
